Laboratory results reported in patent US7258999B2, “PTH responsive gene” (Wyeth, priority 2002, dated 2007).

System: PAIGB expression
Assay: RADE differential display of rat tibia RNA after PTH administration
Assay type: in vivo
Settings: eight days
Description: Total RNA was isolated and each RNA sample was then treated with 20 units of DNAse (Ambion, Austin, Tex.). After RNA cleaning, samples were split into three reverse transcription (RT) reactions. Each RT reaction contained 4 μg RNA, 1000 units SuperScript II RT (Gibco), 100 μM dNTPs and 0.2 μM anchor primer in a final volume of 100 μl. Anchor primers had the sequence (5′→3′) T11A, T11C, or T11G. For differential display each cDNA sample was subjected, in duplicate, to 80 PCR reactions using the appropriate anchor primer and one of 80 arbitrary primers (HAPs 1-80; Genhunter). PCR reactions contained in a final volume of 20 ul, 20 ng cDNA, 2 μM dNTPs, 0.2 μM anchor primer, 0.2 μM arbitrary primer, 1 unit Taq polymerase (Applied Biosystems (AB), Foster City, Calif.), and 2.5 μCi [α-^33P]dATP (2000 Ci/mmole). PCR conditions were as follows: 1 cycle of 92° C./2′, 40 cycles of [92° C./15″, 40° C./2′, 72° C./30″], and 1 cycle of 72° C./5′. PCR samples were then loaded onto a 50 cm 6% sequencing gel and run at 200 volts constant. Differentially expressed bands were excised from the dried gel. […]
Female Wister rats 4 weeks of age were treated with vehicle (saline) and human PTH (1-34) at a dose of 40 μg/kg of body weight for eight days. […] Three weeks post OVX total BMD was measured to determine if osteopenia was established. […]

Substance: human PTH (1-34)
- PAIGB expression in bone RNA (RADE) (continuous administration, 40 μg/kg/day): did not induce any changes
- PAIGB expression in bone RNA (RADE) (intermittent injection, 40 μg/kg): induced
